Laboratory results published in PubChem BioAssay (NCI).
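Protocol summary: plate cells (96-well), add compound at 5 concentrations, incubate 48 h, interpolate endpoints linearly. At the GI50, growth is halved. TGI: total growth inhibition.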

Tests used:
Assay in all cases: NCI anticancer screen, dose series, 48 h
LOX IMVI melanoma = tested on: LOX IMVI melanoma
HOP-92 NSCLC = tested on: HOP-92 NSCLC
M14 melanoma = tested on: M14 melanoma
IGROV1 ovarian = tested on: IGROV1 ovarian
OVCAR-3 ovarian = tested on: OVCAR-3 ovarian
DU-145 prostate = tested on: DU-145 prostate
T-47D breast = tested on: T-47D breast
SF-268 CNS = tested on: SF-268 CNS
MDA-MB-435 = tested on: MDA-MB-435
U251 CNS = tested on: U251 CNS
SK-MEL-5 melanoma = tested on: SK-MEL-5 melanoma
NCI-H522 lung = tested on: NCI-H522 lung
786-0 renal = tested on: 786-0 renal
COLO 205 colon = tested on: COLO 205 colon
NCI-H226 lung = tested on: NCI-H226 lung
CAKI-1 renal = tested on: CAKI-1 renal
RPMI-8226 leukemia = tested on: RPMI-8226 leukemia
NCI-H460 lung = tested on: NCI-H460 lung
PC-3 prostate = tested on: PC-3 prostate
HT29 colon = tested on: HT29 colon
TK-10 renal = tested on: TK-10 renal
SW-620 colon = tested on: SW-620 colon
SK-MEL-28 melanoma = tested on: SK-MEL-28 melanoma
UACC-257 melanoma = tested on: UACC-257 melanoma
MDA-MB-231 breast = tested on: MDA-MB-231 breast
SR leukemia = tested on: SR leukemia
BT-549 breast = tested on: BT-549 breast
SK-OV-3 ovarian = tested on: SK-OV-3 ovarian
A498 renal = tested on: A498 renal
HL-60(TB) leukemia = tested on: HL-60(TB) leukemia
HCC-2998 colon = tested on: HCC-2998 colon
RXF 393 renal = tested on: RXF 393 renal
EKVX NSCLC = tested on: EKVX NSCLC
A549 NSCLC = tested on: A549 NSCLC
HCT-15 colon = tested on: HCT-15 colon
OVCAR-8 ovarian = tested on: OVCAR-8 ovarian
KM12 colon = tested on: KM12 colon
SF-295 CNS = tested on: SF-295 CNS
MOLT-4 leukemia = tested on: MOLT-4 leukemia
OVCAR-4 ovarian = tested on: OVCAR-4 ovarian
CCRF-CEM leukemia = tested on: CCRF-CEM leukemia
SK-MEL-2 melanoma = tested on: SK-MEL-2 melanoma
UO-31 renal = tested on: UO-31 renal
SNB-75 CNS = tested on: SNB-75 CNS
HOP-62 NSCLC = tested on: HOP-62 NSCLC
OVCAR-5 ovarian = tested on: OVCAR-5 ovarian
SN12C renal = tested on: SN12C renal
MALME-3M melanoma = tested on: MALME-3M melanoma
MCF7 breast = tested on: MCF7 breast
ACHN renal = tested on: ACHN renal
HCT-116 colon = tested on: HCT-116 colon
UACC-62 melanoma = tested on: UACC-62 melanoma
K-562 leukemia = tested on: K-562 leukemia
NCI/ADR-RES ovarian = tested on: NCI/ADR-RES ovarian
SNB-19 CNS = tested on: SNB-19 CNS
SF-539 CNS = tested on: SF-539 CNS
HS 578T breast = tested on: HS 578T breast

Work on O=C1Nc2cc(Cl)ccc2/C1=C\c1ccc(OCc2ccc(Br)cc2F)cc1 yielded a GI50 (LOX IMVI melanoma) of 1.49 µM, a TGI (LOX IMVI melanoma) of 2.88 µM and a GI50 (HOP-92 NSCLC) of 1.22 µM. The TGI (HOP-92 NSCLC) was 3.85 µM, the GI50 (M14 melanoma) was 2.27 µM and the TGI (M14 melanoma) was 6.69 µM. The GI50 (IGROV1 ovarian) was 2.07 µM, the TGI (IGROV1 ovarian) was 5.13 µM and the GI50 (OVCAR-3 ovarian) was 2.08 µM. The TGI (OVCAR-3 ovarian) was 4.72 µM, the GI50 (DU-145 prostate) was 2.93 µM and the TGI (DU-145 prostate) was greater than 100 µM. It also gave a GI50 (T-47D breast) of 2.3 µM, a TGI (T-47D breast) of 6.6 µM and a GI50 (SF-268 CNS) of 2.29 µM. The TGI (SF-268 CNS) was 6.34 µM, the GI50 (MDA-MB-435) was 2.26 µM and the TGI (MDA-MB-435) was 5.38 µM. It also gave a GI50 (U251 CNS) of 1.69 µM, a TGI (U251 CNS) of 3.21 µM and a GI50 (SK-MEL-5 melanoma) of 5.53 µM. The TGI (SK-MEL-5 melanoma) was 82.4 µM, the GI50 (NCI-H522 lung) was 1.8 µM and the TGI (NCI-H522 lung) was 4.33 µM. It also gave a GI50 (786-0 renal) of 1.98 µM, a TGI (786-0 renal) of 3.66 µM and a GI50 (COLO 205 colon) of 2.58 µM. For the same molecule, the TGI (COLO 205 colon) was 12.4 µM, the GI50 (NCI-H226 lung) was 2.19 µM and the TGI (NCI-H226 lung) was 6.89 µM. The GI50 (CAKI-1 renal) was 1.67 µM, the TGI (CAKI-1 renal) was 3.35 µM and the GI50 (RPMI-8226 leukemia) was 3.71 µM. The TGI (RPMI-8226 leukemia) was greater than 100 µM, the GI50 (NCI-H460 lung) was 0.459 µM and the TGI (NCI-H460 lung) was 1.7 µM. For the same molecule, the GI50 (PC-3 prostate) was 1.7 µM, the TGI (PC-3 prostate) was 3.49 µM and the GI50 (HT29 colon) was 2.37 µM. The TGI (HT29 colon) was 6.4 µM, the GI50 (TK-10 renal) was 2.51 µM and the TGI (TK-10 renal) was 4.59 µM. For the same molecule, the GI50 (SW-620 colon) was 1.9 µM, the TGI (SW-620 colon) was 4.56 µM and the GI50 (SK-MEL-28 melanoma) was 2.84 µM. It also gave a TGI (SK-MEL-28 melanoma) of 8.37 µM, a GI50 (UACC-257 melanoma) of 3.3 µM and a TGI (UACC-257 melanoma) of 18.4 µM. For the same molecule, the GI50 (MDA-MB-231 breast) was 2.2 µM, the TGI (MDA-MB-231 breast) was 5.34 µM and the GI50 (SR leukemia) was 2.59 µM. For the same molecule, the TGI (SR leukemia) was 8.18 µM, the GI50 (BT-549 breast) was 2.1 µM and the TGI (BT-549 breast) was 4.69 µM. For the same molecule, the GI50 (SK-OV-3 ovarian) was 1.69 µM, the TGI (SK-OV-3 ovarian) was 3.33 µM and the GI50 (A498 renal) was 2.5 µM. It also gave a TGI (A498 renal) of 5.95 µM, a GI50 (HL-60(TB) leukemia) of 53 µM and a TGI (HL-60(TB) leukemia) greater than 100 µM. For the same molecule, the GI50 (HCC-2998 colon) was 4.14 µM, the TGI (HCC-2998 colon) was 37.4 µM and the GI50 (RXF 393 renal) was 1.65 µM. The TGI (RXF 393 renal) was 3.2 µM, the GI50 (EKVX NSCLC) was 3.85 µM and the TGI (EKVX NSCLC) was 18 µM. It also gave a GI50 (A549 NSCLC) of 2.04 µM, a TGI (A549 NSCLC) of 4.62 µM and a GI50 (HCT-15 colon) of 3.55 µM. It also gave a TGI (HCT-15 colon) of 50.1 µM, a GI50 (OVCAR-8 ovarian) of 2.46 µM and a TGI (OVCAR-8 ovarian) of 6.89 µM. It also gave a GI50 (KM12 colon) of 3.12 µM, a TGI (KM12 colon) of 73.7 µM and a GI50 (SF-295 CNS) of 1.89 µM. The TGI (SF-295 CNS) was 3.5 µM, the GI50 (MOLT-4 leukemia) was 3.57 µM and the TGI (MOLT-4 leukemia) was 26.1 µM. The GI50 (OVCAR-4 ovarian) was 1.84 µM, the TGI (OVCAR-4 ovarian) was 3.71 µM and the GI50 (CCRF-CEM leukemia) was 3.74 µM. The TGI (CCRF-CEM leukemia) was 22 µM, the GI50 (SK-MEL-2 melanoma) was 2.97 µM and the TGI (SK-MEL-2 melanoma) was 9.98 µM. It also gave a GI50 (UO-31 renal) of 1.49 µM, a TGI (UO-31 renal) of 4.75 µM and a GI50 (SNB-75 CNS) of 1.81 µM. The TGI (SNB-75 CNS) was 3.39 µM, the GI50 (HOP-62 NSCLC) was 1.79 µM and the TGI (HOP-62 NSCLC) was 3.76 µM. The GI50 (OVCAR-5 ovarian) was 4.16 µM, the TGI (OVCAR-5 ovarian) was greater than 100 µM and the GI50 (SN12C renal) was 1.86 µM. The TGI (SN12C renal) was 4.09 µM, the GI50 (MALME-3M melanoma) was 1.97 µM and the TGI (MALME-3M melanoma) was 4.27 µM. The GI50 (MCF7 breast) was 1.25 µM, the TGI (MCF7 breast) was 15.2 µM and the GI50 (ACHN renal) was 1.83 µM. It also gave a TGI (ACHN renal) of 4.04 µM, a GI50 (HCT-116 colon) of 1.38 µM and a TGI (HCT-116 colon) of 2.87 µM. The GI50 (UACC-62 melanoma) was 1.68 µM, the TGI (UACC-62 melanoma) was 3.35 µM and the GI50 (K-562 leukemia) was 3.3 µM. For the same molecule, the TGI (K-562 leukemia) was greater than 100 µM, the GI50 (NCI/ADR-RES ovarian) was 2.31 µM and the TGI (NCI/ADR-RES ovarian) was 6 µM. It also gave a GI50 (SNB-19 CNS) of 1.92 µM, a TGI (SNB-19 CNS) of 4.29 µM and a GI50 (SF-539 CNS) of 1.66 µM. For the same molecule, the TGI (SF-539 CNS) was 3.18 µM, the GI50 (HS 578T breast) was 1.91 µM and the TGI (HS 578T breast) was 6.2 µM.
